This note sets out measurements from ChEMBL document CHEMBL1155414, “Identification of a urea bioisostere of a triazole oxytocin antagonist” (Bioorg Med Chem Lett, 2010).

For one assay, the target named is T1, Oxytocin receptor (Homo sapiens, UniProt P30559).
T1 sequence (P30559 whole entry): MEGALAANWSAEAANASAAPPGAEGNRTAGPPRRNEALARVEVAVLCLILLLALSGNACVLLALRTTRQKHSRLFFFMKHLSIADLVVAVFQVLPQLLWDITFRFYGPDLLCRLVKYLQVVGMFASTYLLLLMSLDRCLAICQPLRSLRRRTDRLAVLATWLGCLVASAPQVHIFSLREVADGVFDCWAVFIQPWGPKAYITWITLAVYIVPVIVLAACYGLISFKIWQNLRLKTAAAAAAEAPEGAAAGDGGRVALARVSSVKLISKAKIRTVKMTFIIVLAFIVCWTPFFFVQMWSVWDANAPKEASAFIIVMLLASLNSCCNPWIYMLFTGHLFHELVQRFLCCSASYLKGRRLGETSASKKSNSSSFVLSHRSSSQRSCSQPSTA
As to the kind of experiment: Antagonist activity at human oxytocin receptor expressed in CHO cells by beta lactamase assay. It counts as functional, cell-based.

In the next assay the target is Vasopressin V1a receptor (Homo sapiens, UniProt P37288). The assay can be described thus: Antagonist activity at human vasopressin V1A receptor. The class given is functional.
Vasopressin V1a receptor, sequence (P37288 whole entry): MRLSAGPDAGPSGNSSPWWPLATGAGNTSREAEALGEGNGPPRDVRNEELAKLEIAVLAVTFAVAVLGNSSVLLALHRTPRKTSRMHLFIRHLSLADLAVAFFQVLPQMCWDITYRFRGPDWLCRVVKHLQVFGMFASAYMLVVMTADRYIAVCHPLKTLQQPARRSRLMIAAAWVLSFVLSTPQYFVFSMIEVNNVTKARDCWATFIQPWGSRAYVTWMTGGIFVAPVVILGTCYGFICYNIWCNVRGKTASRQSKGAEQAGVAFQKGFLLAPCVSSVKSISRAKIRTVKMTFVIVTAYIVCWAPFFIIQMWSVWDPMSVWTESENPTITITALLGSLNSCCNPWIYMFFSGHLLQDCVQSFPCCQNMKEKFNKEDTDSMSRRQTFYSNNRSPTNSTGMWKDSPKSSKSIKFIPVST
Assay [1] has as its target Vasopressin V2 receptor (Homo sapiens) (UniProt P30518). The assay can be described thus: Antagonist activity at human vasopressin V2 receptor at 10 uM. The class given is functional. More on the design: scale not given: the % may be the effect or the level left.
In assay [2] the target is T2, Vasopressin V1b receptor (Homo sapiens) (UniProt P47901).
T2 sequence (whole entry): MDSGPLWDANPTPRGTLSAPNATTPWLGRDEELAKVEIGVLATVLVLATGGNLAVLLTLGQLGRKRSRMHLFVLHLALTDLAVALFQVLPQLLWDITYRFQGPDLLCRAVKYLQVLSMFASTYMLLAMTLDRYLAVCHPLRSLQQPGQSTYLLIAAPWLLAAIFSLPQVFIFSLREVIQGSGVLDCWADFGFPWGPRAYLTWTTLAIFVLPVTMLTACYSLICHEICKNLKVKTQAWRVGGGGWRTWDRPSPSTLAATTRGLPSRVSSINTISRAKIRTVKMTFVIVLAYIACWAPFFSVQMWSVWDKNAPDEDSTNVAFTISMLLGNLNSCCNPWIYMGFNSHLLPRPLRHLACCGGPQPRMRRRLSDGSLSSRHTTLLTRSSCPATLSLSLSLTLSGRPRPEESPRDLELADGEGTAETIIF
The assay can be described thus: Antagonist activity at human vasopressin V1B receptor at 10 uM. Also on record: scale not given: the % may be the effect or the level left. It counts as functional.

Vasopressin V2 receptor (Homo sapiens), sequence (P30518 whole entry): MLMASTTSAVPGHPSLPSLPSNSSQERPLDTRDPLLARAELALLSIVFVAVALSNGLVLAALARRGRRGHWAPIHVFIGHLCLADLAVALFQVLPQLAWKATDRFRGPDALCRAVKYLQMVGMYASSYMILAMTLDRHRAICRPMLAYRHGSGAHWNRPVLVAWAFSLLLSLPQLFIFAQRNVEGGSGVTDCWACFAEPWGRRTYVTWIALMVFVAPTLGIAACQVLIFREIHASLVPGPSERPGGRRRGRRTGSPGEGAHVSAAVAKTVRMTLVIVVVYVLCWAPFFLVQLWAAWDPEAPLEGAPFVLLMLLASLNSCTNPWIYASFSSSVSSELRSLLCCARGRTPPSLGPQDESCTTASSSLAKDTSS

In the case of `CCN(C(=O)N1CC(Oc2ccc(F)cc2C)C1)c1ccc(OC)nc1`, the inhibitory constant (Ki) (usually the equilibrium dissociation constant of an inhibitor or competing ligand from its target) at Oxytocin receptor came out at 43 nM. Regarding `COc1ccc(-n2c(C)nnc2N2CC(Oc3cc(F)cc(F)c3C)C2)cn1`, the results for the Ki at Oxytocin receptor and on Vasopressin V1a receptor were 41.4 nM and greater than 4200 nM, respectively. Consider `COc1ccc(N(C)C(=O)N2CC(Oc3ccc(F)cc3C)C2)cn1`, for which the values for the Ki on Oxytocin receptor and at Vasopressin V1a receptor were 112 nM and 1300 nM, respectively. For `COc1ccc(-n2c(C)nnc2N2CC(Oc3cccc(F)c3C)C2)cn1` the same measures were 19.7 nM and greater than 4200 nM. `CCN(C(=O)N1CC(Oc2ccc(F)cc2Cl)C1)c1ccc(OC)nc1` came in with a Ki at Oxytocin receptor of 48.4 nM.

On Oxytocin receptor, `CCN(C(=O)N1CC(Oc2cc(F)cc(F)c2C)C1)c1ccc(OC)nc1` returned a Ki of 36.7 nM.

Regarding `COc1ccc(N(C)C(=O)N2CC(Oc3cc(F)cc(F)c3C)C2)cn1`, the Ki at Oxytocin receptor is 237 nM; at Vasopressin V1a receptor, greater than 4200 nM. For the compound `COc1ccc(N(C)C(=O)N2CC(Oc3cccc(F)c3C)C2)cn1`, the Ki on Oxytocin receptor is 159 nM; on Vasopressin V1a receptor, greater than 4200 nM.

Take `COc1ccc(N(C)C(=O)N2CC(Oc3ccc(F)cc3Cl)C2)cn1`: the Ki amounted to 67.2 nM at Oxytocin receptor and 779 nM on Vasopressin V1a receptor. In the case of `CCN(C(=O)N1CC(Oc2cccc(F)c2C)C1)c1ccc(OC)nc1`, the Activity in assay [1] and in assay [2] was less than 10% throughout. Moreover, the inhibition constant Ki at Oxytocin receptor is 13.9 nM; on Vasopressin V1a receptor, greater than 4200 nM.
